Experiments:
Details in all cases: exposure time: 72 h
E13 [1] = patient-derived glioblastoma stem cells of classical subtype; experiment: surviving fraction (nuclei count normalised to DMSO); higher = more cells surviving (less toxic)
E21 [2] = patient-derived glioblastoma stem cells of mesenchymal subtype; experiment: as above
E28 [3] = patient-derived glioblastoma stem cells of classical subtype; experiment: as above
E31 [4] = patient-derived glioblastoma stem cells of proneural subtype; experiment: as above
E34 [5] = patient-derived glioblastoma stem cells of proneural subtype; experiment: as above
E57 [6] = patient-derived glioblastoma stem cells of mesenchymal subtype; experiment: as above
FT3469 [7] = normal neural stem cell line; experiment: as above
E13 [8] = experiment: phenotypic distance (Euclidean, principal components) from DMSO controls (arbitrary units); higher = stronger morphological change
E21 [9] = experiment: as above
E28 [10] = experiment: as above
E31 [11] = experiment: as above
E34 [12] = experiment: as above
E57 [13] = experiment: as above
FT3469 [14] = experiment: as above
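Wherever phenotypic distance (Euclidean, principal components) from DMSO controls is given: cell Painting imaging in 384-well plates, CellProfiler features reduced to at least 20 principal components, Euclidean distance versus same-plate DMSO vehicle wells (0.1% v/v), median over six images per well.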
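Wherever surviving fraction (nuclei count normalised to DMSO) is given: nuclei counted by high-content imaging of Hoechst-stained cells in laminin-coated 384-well plates, relative to 0.1% DMSO vehicle wells, with staurosporine as cell-death control.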

CCC(=O)OCC(=O)[C@@]1(OC(=O)CC)[C@H](C)C[C@H]2[C@H]3[C@H]([C@@H](O)C[C@@]21C)[C@@]1(C)C=CC(=O)C=C1C[C@H]3Cl [Alclometasone dipropionate]
Details | phenotypic distance | surviving fraction
E13 [1], 4.1 nM | – | 0.975
E13 [1], 12.3 nM | – | 0.888
E13 [1], 37 nM | – | 0.926
E13 [1], 111.1 nM | – | 0.859
E13 [1], 333.3 nM | – | 0.951
E13 [1], 1000 nM | – | 0.974
E13 [1], 3000 nM | – | 0.671
E13 [8], 4.1 nM | 1.28 | –
E13 [8], 12.3 nM | 1.12 | –
E13 [8], 37 nM | 1.27 | –
E13 [8], 111.1 nM | 1.15 | –
E13 [8], 333.3 nM | 1.25 | –
E13 [8], 1000 nM | 1.24 | –
E13 [8], 3000 nM | 1.47 | –
E21 [2], 4.1 nM | – | 1.32
E21 [2], 12.3 nM | – | 1.26
E21 [2], 37 nM | – | 1.21
E21 [2], 111.1 nM | – | 1.39
E21 [2], 333.3 nM | – | 1.2
E21 [2], 1000 nM | – | 1.2
E21 [2], 3000 nM | – | 1.1
E21 [9], 4.1 nM | 1.94 | –
E21 [9], 12.3 nM | 2.13 | –
E21 [9], 37 nM | 2.45 | –
E21 [9], 111.1 nM | 3.04 | –
E21 [9], 333.3 nM | 2.13 | –
E21 [9], 1000 nM | 2.23 | –
E21 [9], 3000 nM | 2.27 | –
E28 [3], 4.1 nM | – | 1.25
E28 [3], 12.3 nM | – | 0.854
E28 [3], 37 nM | – | 1.17
E28 [3], 111.1 nM | – | 0.928
E28 [3], 333.3 nM | – | 1.08
E28 [3], 1000 nM | – | 1.38
E28 [3], 3000 nM | – | 0.939
E28 [10], 4.1 nM | 0.573 | –
E28 [10], 12.3 nM | 0.69 | –
E28 [10], 37 nM | 0.865 | –
E28 [10], 111.1 nM | 0.821 | –
E28 [10], 333.3 nM | 0.465 | –
E28 [10], 1000 nM | 1.06 | –
E28 [10], 3000 nM | 0.433 | –
E31 [4], 4.1 nM | – | 1.3
E31 [4], 12.3 nM | – | 1.46
E31 [4], 37 nM | – | 1.4
E31 [4], 111.1 nM | – | 1.41
E31 [4], 333.3 nM | – | 1.12
E31 [4], 1000 nM | – | 1.19
E31 [4], 3000 nM | – | 1.23
E31 [11], 4.1 nM | 2.71 | –
E31 [11], 12.3 nM | 4.05 | –
E31 [11], 37 nM | 4.11 | –
E31 [11], 111.1 nM | 3.84 | –
E31 [11], 333.3 nM | 2.94 | –
E31 [11], 1000 nM | 3.4 | –
E31 [11], 3000 nM | 3.3 | –
E34 [5], 4.1 nM | – | 1.1
E34 [5], 12.3 nM | – | 1.15
E34 [5], 37 nM | – | 1.1
E34 [5], 111.1 nM | – | 1.1
E34 [5], 333.3 nM | – | 0.991
E34 [5], 1000 nM | – | 1.06
E34 [5], 3000 nM | – | 0.984
E34 [12], 4.1 nM | 0.626 | –
E34 [12], 12.3 nM | 1.12 | –
E34 [12], 37 nM | 0.662 | –
E34 [12], 111.1 nM | 1.42 | –
E34 [12], 333.3 nM | 1.36 | –
E34 [12], 1000 nM | 1.38 | –
E34 [12], 3000 nM | 1.48 | –
E57 [6], 4.1 nM | – | 1.12
E57 [6], 12.3 nM | – | 1.18
E57 [6], 37 nM | – | 1.1
E57 [6], 111.1 nM | – | 1.07
E57 [6], 333.3 nM | – | 1.11
E57 [6], 1000 nM | – | 1.14
E57 [6], 3000 nM | – | 1.13
E57 [13], 4.1 nM | 1.91 | –
E57 [13], 12.3 nM | 2.63 | –
E57 [13], 37 nM | 2.58 | –
E57 [13], 111.1 nM | 2.62 | –
E57 [13], 333.3 nM | 3.15 | –
E57 [13], 1000 nM | 3.25 | –
E57 [13], 3000 nM | 2.81 | –
FT3469 [7], 4.1 nM | – | 1.16
FT3469 [7], 12.3 nM | – | 1.29
FT3469 [7], 37 nM | – | 1.33
FT3469 [7], 111.1 nM | – | 1.15
FT3469 [7], 333.3 nM | – | 1.07
FT3469 [7], 1000 nM | – | 1.19
FT3469 [7], 3000 nM | – | 1.02
FT3469 [14], 4.1 nM | 1.11 | –
FT3469 [14], 12.3 nM | 1.62 | –
FT3469 [14], 37 nM | 1.67 | –
FT3469 [14], 111.1 nM | 2.12 | –
FT3469 [14], 333.3 nM | 1.8 | –
FT3469 [14], 1000 nM | 1.92 | –
FT3469 [14], 3000 nM | 1.23 | –

From the supplement of paper PMC13207355
